# Source: US12527801B2, “Cell activator of animal cell” (Vitamin C60 BioResearch Corporation, priority 2019, dated 2026)
# Legend:
# [1] = Mutagenicity test (Ames test) (OECD TG471); format: cell-based
# Human patch test = conditions: in vivo
# [2] = Test of long-term continuous use (double blind, half face): water content of keratin and TEWL; format: in vivo, human; conditions: conclusion from 8-week use of toner with 0.1% by weight AOH
# Experimental: A test of long-term continuous use (double blind test) was performed using a toner (toner B) comprising 0.1% by weight of AOH of Example 4 and a placebo toner (toner A) having the same composition as that of the toner of Example 4 except that AOH was not comprised to perform evaluation of the water content of keratin and the transepidermal water loss (TEWL). 22 test subjects (females, average age 48.4±4.68 years old) were asked to apply the toner A on the half face and the toner B on the other half face after washing their faces twice in the morning and evening, and this was continued for 8 weeks. The water content of keratin and the TEWL were measured at the start of the test, after 4 weeks, and after 8 weeks. The water content of stratum corneum and the TEWL on the left and right cheek portions of the test subjects were measured using each of SKICON-200EX (Yayoi Co., Ltd.) and Cyclone Moisture Evaporator AS-CT1 (ASCH Japan Co., Ltd.). Analysis of test results was performed on 20 subjects as effective test subjects excluding 2 test subjects whose left-right difference in the water content of keratin at the start of the test was 150 μS or more.
# [3] = tested on: reconstructed human epidermis (RhE) model (SkinEthic-RHE); test: Skin irritation test, reconstructed human epidermis model, MTT cell viability; format: cell-based
# Experimental: A skin irritation test was performed in accordance with OECD Test Guidelines (No. 439), and SKINETHIC SKIN IRRITATION TEST, which is a TEST METHOD FOR THE PREDICTION OF ACUTE SKIN IRRITATION OF CHEMICALS and is a protocol published by the European Centre for the Validation of Alternative Methods (ECVAM). […] The cell viability of the RhE model was measured by an MTT method. In the MTT method, the cell viability is measured by quantitatively determining blue formazan utilizing a property that MTT (3-(4,5-dimethylthiazol-2-yl)-2,5-diphenyltetrazolium bromide, thiazolyl blue), which is a vital staining dye, is reduced to blue formazan by enzymatic reaction of viable cells. […]
# After exposing the test sample for 42 minutes, the test sample was immediately removed from the epidermis model by a washing operation and cultured in fresh growth medium for an additional 42 hours. […] Thereafter, the epidermis model was immersed in isopropanol for 2 hours to extract blue formazan in the epidermis model, and the absorbance at 570 nm of the extraction liquid was measured with a microplate reader. The same treatment was performed on the epidermis model exposed to the negative control and the positive control to measure the absorbance. […]
smiles,measurement,setting,value
"O=c1[nH]c2nn[nH]c(=O)c2[nH]1 [AOH, 3H-imidazo[4,5-d][1,2,3]triazine-4,6(5H,7H)-dione]",toxicity in mutagenicity test (Ames test),[1],toxicity was not recognized
same,toxicity in human patch test,Human patch test,toxicity was not recognized
same,moisturizing effect on the skin,[2],has the moisturizing effect on the skin
same,cell viability of the skin model,"[3]; 42 min exposure, 42 h post-culture, MTT, PBS (−) negative control as 100%",100%
same,skin irritation determination,"[3]; RhE model, OECD TG 439",non-irritating
